Test results as given in the kinase profiling compilation of Christmann-Franck et al. (2016).

Experiments:
Assay in all cases: radiometric filter-binding kinase assay, Kinaseprofiler
BTK (human) = BTK (human) (UniProt Q06187); details: ATP 200 µM
CAMK2D (human) = CAMK2D (human) (UniProt Q13557); details: ATP 10 µM
CDK5 CDK5R1 p35 (human) = CDK5 CDK5R1 p35 (human) (UniProt Q00535+Q15078); details: ATP 15 µM
CLK3 (human) = CLK3 (human) (UniProt P49761); details: ATP 90 µM
DAPK2 (human) = DAPK2 (human) (UniProt Q9UIK4); details: ATP 10 µM
DAPK3 (human) = DAPK3 (human) (UniProt O43293); details: ATP 15 µM
DCLK2 (human) = DCLK2 (human) (UniProt Q8N568); details: ATP 90 µM
DMPK (human) = DMPK (human) (UniProt Q09013); details: ATP 10 µM
EPHA7 (human) = EPHA7 (human) (UniProt Q15375); details: ATP 90 µM
ERBB4 (human) = ERBB4 (human) (UniProt Q15303); details: ATP 15 µM
FLT3 (human) = FLT3 (human) (UniProt P36888); details: ATP 200 µM
IRAK1 (human) = IRAK1 (human) (UniProt P51617); details: ATP 45 µM
[1] = tested on: IRAK4 (human), Q9NWZ3 [A81V]; details: ATP 200 µM
[2] = biological target: JAK3 JH1 catalytic (human) (UniProt P52333); details: ATP 10 µM
LYN (human) = LYN (human) (UniProt P07948); details: ATP 70 µM
MAP2K7 (human) = MAP2K7 (human) (UniProt O14733); details: ATP 10 µM
MAP3K5 (human) = MAP3K5 (human) (UniProt Q99683); details: ATP 200 µM
MAPK11 (human) = MAPK11 (human) (UniProt Q15759); details: ATP 45 µM
MAPK14 (human) = MAPK14 (human) (UniProt Q16539); details: ATP 90 µM
NEK2 (human) = NEK2 (human) (UniProt P51955); details: ATP 120 µM
PIM1 (human) = PIM1 (human) (UniProt P11309); details: ATP 90 µM
PIM3 (human) = PIM3 (human) (UniProt Q86V86); details: ATP 155 µM
PLK1 (human) = PLK1 (human) (UniProt P53350); details: ATP 70 µM
PRKACA (human) = PRKACA (human) (UniProt P17612); details: ATP 10 µM
PRKD2 (human) = PRKD2 (human) (UniProt Q9BZL6); details: ATP 155 µM
PTK2B (human) = PTK2B (human) (UniProt Q14289); details: ATP 90 µM
SRPK1 (human) = SRPK1 (human) (UniProt Q96SB4); details: ATP 10 µM
STK10 (human) = STK10 (human) (UniProt O94804); details: ATP 200 µM
STK24 (human) = STK24 (human) (UniProt Q9Y6E0); details: ATP 15 µM
SYK (human) = SYK (human) (UniProt P43405); details: ATP 15 µM
TLK2 (human) = TLK2 (human) (UniProt Q86UE8); details: ATP 10 µM
TSSK1B (human) = TSSK1B (human) (UniProt Q9BXA7); details: ATP 15 µM
VRK2 (human) = VRK2 (human) (UniProt Q86Y07); details: ATP 70 µM

DAPK3 (human), sequence (O43293 whole entry, looked up): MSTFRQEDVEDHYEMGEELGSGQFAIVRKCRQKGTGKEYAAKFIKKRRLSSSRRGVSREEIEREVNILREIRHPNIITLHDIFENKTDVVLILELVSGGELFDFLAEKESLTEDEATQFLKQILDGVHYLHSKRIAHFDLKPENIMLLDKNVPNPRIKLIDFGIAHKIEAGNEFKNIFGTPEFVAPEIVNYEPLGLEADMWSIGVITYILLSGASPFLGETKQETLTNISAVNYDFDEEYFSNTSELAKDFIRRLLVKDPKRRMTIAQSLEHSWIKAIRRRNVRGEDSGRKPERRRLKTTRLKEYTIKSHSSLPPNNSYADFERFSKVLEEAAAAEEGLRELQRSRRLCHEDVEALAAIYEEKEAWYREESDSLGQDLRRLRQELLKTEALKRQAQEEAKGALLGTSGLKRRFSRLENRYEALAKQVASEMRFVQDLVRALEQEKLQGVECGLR
MAPK11 (human), sequence (Q15759 whole entry, looked up): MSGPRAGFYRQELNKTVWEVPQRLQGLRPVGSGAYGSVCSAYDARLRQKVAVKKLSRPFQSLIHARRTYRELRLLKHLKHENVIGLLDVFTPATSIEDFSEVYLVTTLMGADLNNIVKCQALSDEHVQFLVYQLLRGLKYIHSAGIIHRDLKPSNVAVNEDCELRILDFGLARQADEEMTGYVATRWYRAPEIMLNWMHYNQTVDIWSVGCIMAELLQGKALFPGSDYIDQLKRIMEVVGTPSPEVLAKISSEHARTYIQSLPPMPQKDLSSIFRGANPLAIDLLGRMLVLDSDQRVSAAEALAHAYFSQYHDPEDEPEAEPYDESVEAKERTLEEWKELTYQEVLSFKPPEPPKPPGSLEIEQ
TLK2 (human), sequence (Q86UE8 whole entry, looked up): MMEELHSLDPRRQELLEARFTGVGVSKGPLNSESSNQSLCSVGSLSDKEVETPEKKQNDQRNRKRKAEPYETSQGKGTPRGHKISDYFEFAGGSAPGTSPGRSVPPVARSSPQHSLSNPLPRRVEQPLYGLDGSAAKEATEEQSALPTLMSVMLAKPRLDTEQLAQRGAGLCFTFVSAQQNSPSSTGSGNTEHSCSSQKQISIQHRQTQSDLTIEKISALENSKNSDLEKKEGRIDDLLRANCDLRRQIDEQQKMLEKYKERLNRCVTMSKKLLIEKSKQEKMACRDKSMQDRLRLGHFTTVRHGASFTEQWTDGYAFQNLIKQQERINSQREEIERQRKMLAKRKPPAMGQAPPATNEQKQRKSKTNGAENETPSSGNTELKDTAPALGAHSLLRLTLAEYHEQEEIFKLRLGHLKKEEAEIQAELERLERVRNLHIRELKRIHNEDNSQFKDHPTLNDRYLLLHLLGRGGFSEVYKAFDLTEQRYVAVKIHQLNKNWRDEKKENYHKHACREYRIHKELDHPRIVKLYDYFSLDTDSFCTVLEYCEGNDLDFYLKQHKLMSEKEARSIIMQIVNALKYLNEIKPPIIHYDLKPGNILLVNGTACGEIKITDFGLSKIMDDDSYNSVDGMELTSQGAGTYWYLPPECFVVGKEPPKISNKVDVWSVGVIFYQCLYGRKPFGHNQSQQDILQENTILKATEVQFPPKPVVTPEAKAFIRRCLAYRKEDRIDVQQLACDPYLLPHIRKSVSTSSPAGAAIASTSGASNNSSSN
JAK3 JH1 catalytic (human), sequence (P52333 whole entry, looked up): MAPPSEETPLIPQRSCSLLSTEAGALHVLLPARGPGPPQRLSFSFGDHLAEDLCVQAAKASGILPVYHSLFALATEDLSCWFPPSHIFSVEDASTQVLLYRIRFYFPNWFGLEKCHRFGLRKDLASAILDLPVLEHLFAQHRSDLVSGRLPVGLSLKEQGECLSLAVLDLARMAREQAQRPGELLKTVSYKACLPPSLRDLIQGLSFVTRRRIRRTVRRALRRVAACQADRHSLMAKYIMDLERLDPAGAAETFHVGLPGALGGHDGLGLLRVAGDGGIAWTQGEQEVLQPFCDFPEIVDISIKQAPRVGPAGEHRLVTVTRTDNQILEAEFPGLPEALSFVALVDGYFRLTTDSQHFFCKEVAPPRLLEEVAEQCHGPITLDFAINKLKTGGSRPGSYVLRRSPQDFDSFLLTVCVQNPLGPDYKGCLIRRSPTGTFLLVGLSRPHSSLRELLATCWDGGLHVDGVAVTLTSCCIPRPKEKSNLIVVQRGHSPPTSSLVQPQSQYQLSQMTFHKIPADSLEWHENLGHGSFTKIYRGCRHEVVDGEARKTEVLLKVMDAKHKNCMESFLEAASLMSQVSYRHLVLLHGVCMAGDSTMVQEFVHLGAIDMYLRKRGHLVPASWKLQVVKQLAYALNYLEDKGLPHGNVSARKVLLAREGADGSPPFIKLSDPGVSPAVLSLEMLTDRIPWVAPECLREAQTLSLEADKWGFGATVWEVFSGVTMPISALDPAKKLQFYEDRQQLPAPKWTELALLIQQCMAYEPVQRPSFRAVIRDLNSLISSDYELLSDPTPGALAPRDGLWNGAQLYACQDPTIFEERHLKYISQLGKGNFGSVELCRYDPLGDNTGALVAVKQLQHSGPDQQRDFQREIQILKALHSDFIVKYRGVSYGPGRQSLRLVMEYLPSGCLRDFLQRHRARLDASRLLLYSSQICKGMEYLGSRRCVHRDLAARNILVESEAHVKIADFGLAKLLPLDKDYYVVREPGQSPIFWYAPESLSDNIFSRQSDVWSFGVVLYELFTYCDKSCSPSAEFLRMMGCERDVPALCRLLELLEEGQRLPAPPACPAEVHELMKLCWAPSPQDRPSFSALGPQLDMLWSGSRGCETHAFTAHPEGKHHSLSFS
MAP3K5 (human), sequence (Q99683 whole entry, looked up): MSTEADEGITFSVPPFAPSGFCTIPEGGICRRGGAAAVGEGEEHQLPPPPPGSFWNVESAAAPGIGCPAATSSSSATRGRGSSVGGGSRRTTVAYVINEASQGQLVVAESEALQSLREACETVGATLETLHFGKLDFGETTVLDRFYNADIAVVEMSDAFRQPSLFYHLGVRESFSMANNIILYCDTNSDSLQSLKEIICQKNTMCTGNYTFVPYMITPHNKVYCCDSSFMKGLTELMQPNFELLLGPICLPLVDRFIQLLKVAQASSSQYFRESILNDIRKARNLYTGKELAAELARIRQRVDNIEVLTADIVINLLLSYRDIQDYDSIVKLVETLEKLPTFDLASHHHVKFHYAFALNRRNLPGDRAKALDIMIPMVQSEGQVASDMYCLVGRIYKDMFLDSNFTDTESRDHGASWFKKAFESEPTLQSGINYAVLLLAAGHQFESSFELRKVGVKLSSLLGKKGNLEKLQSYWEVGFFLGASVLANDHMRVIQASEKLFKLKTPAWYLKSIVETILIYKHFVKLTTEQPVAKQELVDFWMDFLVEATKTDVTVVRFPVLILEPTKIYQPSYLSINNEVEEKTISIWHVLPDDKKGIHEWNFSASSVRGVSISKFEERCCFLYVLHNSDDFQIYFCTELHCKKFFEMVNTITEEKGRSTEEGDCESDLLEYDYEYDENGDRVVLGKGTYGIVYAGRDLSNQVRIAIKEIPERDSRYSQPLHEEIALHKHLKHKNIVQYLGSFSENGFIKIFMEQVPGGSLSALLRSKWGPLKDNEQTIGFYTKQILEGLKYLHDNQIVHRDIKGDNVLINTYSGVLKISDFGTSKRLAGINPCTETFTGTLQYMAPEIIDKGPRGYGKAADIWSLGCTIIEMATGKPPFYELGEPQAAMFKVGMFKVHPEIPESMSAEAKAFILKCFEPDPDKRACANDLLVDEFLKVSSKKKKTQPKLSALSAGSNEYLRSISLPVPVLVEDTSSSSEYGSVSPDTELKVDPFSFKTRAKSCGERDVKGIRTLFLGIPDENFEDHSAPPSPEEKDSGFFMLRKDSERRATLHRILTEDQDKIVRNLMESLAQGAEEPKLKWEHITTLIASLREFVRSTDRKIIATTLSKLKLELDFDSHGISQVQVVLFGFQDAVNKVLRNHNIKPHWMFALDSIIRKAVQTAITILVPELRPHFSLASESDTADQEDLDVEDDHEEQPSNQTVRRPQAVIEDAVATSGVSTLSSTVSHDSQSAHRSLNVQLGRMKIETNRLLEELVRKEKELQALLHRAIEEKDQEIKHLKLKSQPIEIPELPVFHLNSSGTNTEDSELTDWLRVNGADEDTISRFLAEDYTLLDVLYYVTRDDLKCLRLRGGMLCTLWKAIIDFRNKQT
DMPK (human), sequence (Q09013 whole entry, looked up): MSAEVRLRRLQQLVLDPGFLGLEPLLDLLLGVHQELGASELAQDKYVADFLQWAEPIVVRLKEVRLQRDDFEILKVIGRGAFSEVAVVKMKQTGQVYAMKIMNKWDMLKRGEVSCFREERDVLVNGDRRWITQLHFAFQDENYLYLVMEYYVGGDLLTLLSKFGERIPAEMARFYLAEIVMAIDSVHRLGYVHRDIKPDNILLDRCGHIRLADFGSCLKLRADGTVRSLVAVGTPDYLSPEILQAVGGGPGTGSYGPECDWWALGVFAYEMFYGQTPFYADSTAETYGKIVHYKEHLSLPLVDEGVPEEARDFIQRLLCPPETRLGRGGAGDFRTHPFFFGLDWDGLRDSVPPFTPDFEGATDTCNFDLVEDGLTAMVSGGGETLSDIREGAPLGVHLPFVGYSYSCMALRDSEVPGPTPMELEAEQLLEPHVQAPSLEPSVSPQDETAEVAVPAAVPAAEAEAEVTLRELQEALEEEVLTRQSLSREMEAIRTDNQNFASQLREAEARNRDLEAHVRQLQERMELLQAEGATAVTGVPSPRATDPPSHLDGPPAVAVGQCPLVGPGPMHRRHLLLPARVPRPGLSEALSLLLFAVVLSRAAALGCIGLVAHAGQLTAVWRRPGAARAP

residual activity (BTK (human); compound 1.0 µM): 31%
residual activity (BTK (human); compound 10.0 µM): 4%
residual activity (CAMK2D (human); compound 1.0 µM): 10%
residual activity (CAMK2D (human); compound 10.0 µM): 2%
residual activity (CDK5 CDK5R1 p35 (human); compound 1.0 µM): 5%
residual activity (CDK5 CDK5R1 p35 (human); compound 10.0 µM): 1%
residual activity (CLK3 (human); compound 1.0 µM): 79%
residual activity (CLK3 (human); compound 10.0 µM): 54%
residual activity (DAPK2 (human); compound 1.0 µM): 73%
residual activity (DAPK2 (human); compound 10.0 µM): 23%
residual activity (DAPK3 (human); compound 1.0 µM): 81%
residual activity (DAPK3 (human); compound 10.0 µM): 37%
residual activity (DCLK2 (human); compound 1.0 µM): 119%
residual activity (DCLK2 (human); compound 10.0 µM): 74%
residual activity (DMPK (human); compound 1.0 µM): 109%
residual activity (DMPK (human); compound 10.0 µM): 83%
residual activity (EPHA7 (human); compound 1.0 µM): 70%
residual activity (EPHA7 (human); compound 10.0 µM): 15%
residual activity (ERBB4 (human); compound 1.0 µM): 107%
residual activity (ERBB4 (human); compound 10.0 µM): 99%
residual activity (FLT3 (human); compound 1.0 µM): 1%
residual activity (FLT3 (human); compound 10.0 µM): 0%
residual activity (IRAK1 (human); compound 1.0 µM): 60%
residual activity (IRAK1 (human); compound 10.0 µM): 11%
residual activity ([1]; compound 1.0 µM): 41%
residual activity ([1]; compound 10.0 µM): 6%
residual activity ([2]; compound 1.0 µM): 21%
residual activity ([2]; compound 10.0 µM): 2%
residual activity (LYN (human); compound 1.0 µM): 8%
residual activity (LYN (human); compound 10.0 µM): 2%
residual activity (MAP2K7 (human); compound 1.0 µM): 52%
residual activity (MAP2K7 (human); compound 10.0 µM): 7%
residual activity (MAP3K5 (human); compound 1.0 µM): 52%
residual activity (MAP3K5 (human); compound 10.0 µM): 7%
residual activity (MAPK11 (human); compound 1.0 µM): 101%
residual activity (MAPK11 (human); compound 10.0 µM): 90%
residual activity (MAPK14 (human); compound 1.0 µM): 94%
residual activity (MAPK14 (human); compound 10.0 µM): 78%
residual activity (NEK2 (human); compound 1.0 µM): 93%
residual activity (NEK2 (human); compound 10.0 µM): 83%
residual activity (PIM1 (human); compound 1.0 µM): 76%
residual activity (PIM1 (human); compound 10.0 µM): 47%
residual activity (PIM3 (human); compound 1.0 µM): 94%
residual activity (PIM3 (human); compound 10.0 µM): 90%
residual activity (PLK1 (human); compound 1.0 µM): 83%
residual activity (PLK1 (human); compound 10.0 µM): 103%
residual activity (PRKACA (human); compound 1.0 µM): 90%
residual activity (PRKACA (human); compound 10.0 µM): 54%
residual activity (PRKD2 (human); compound 1.0 µM): 109%
residual activity (PRKD2 (human); compound 10.0 µM): 98%
residual activity (PTK2B (human); compound 1.0 µM): 14%
residual activity (PTK2B (human); compound 10.0 µM): 2%
residual activity (SRPK1 (human); compound 1.0 µM): 90%
residual activity (SRPK1 (human); compound 10.0 µM): 66%
residual activity (STK10 (human); compound 1.0 µM): 66%
residual activity (STK10 (human); compound 10.0 µM): 71%
residual activity (STK24 (human); compound 1.0 µM): 42%
residual activity (STK24 (human); compound 10.0 µM): 10%
residual activity (SYK (human); compound 1.0 µM): 49%
residual activity (SYK (human); compound 10.0 µM): 60%
residual activity (TLK2 (human); compound 1.0 µM): 60%
residual activity (TLK2 (human); compound 10.0 µM): 14%
residual activity (TSSK1B (human); compound 1.0 µM): 78%
residual activity (TSSK1B (human); compound 10.0 µM): 53%
residual activity (VRK2 (human); compound 1.0 µM): 71%
residual activity (VRK2 (human); compound 10.0 µM): 28%
Compound: O=C1Nc2ccccc2/C1=C1\Nc2ccccc2\C1=N/O
